From ChEMBL document CHEMBL5375949, “The evolution of small molecule enzyme activators” (RSC Med Chem, 2023)

Assays:
[1] = Activation of sGC (unknown origin); parameters: species or system Homo sapiens
[2] = target: 3',5'-cyclic-AMP phosphodiesterase 4D (Homo sapiens, UniProt Q08499); assay: Activation of PDE4D5 (unknown origin)
[3] = species on record: Homo sapiens; assay: Activation of recombinant sGC (unknown origin) assessed as fold increase
[4] = target: T1, Carnitine O-palmitoyltransferase 1, liver isoform (Homo sapiens) (UniProt P50416); assay: Activation of CPT-1 in human HeLa cells assessed as fold increase at 100 uM incubated for 10 mins relative to control; type: cell-based; settings: filed as activator
T1 sequence (whole entry): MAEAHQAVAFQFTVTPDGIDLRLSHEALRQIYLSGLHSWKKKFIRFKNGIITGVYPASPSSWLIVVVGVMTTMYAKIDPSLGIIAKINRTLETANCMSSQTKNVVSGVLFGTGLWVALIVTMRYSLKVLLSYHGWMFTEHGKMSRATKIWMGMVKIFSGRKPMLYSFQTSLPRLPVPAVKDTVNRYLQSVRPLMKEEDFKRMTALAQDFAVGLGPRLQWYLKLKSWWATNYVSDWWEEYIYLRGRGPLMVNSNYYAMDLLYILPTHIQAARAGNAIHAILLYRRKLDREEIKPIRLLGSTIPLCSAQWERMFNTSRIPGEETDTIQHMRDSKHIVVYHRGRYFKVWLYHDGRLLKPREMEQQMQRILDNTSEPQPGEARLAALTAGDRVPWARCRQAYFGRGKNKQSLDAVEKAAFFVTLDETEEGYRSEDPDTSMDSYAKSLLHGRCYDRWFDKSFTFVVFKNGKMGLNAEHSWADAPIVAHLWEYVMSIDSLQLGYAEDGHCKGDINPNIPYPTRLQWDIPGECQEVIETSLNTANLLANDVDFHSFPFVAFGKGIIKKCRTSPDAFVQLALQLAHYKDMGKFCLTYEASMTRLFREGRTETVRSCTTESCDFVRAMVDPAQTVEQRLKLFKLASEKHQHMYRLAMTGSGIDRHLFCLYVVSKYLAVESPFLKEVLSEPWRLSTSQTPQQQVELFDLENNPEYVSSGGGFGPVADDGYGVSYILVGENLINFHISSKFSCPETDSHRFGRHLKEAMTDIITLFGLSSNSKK

[5] = tested on: Mus musculus; assay: Anti-obesity activity against diet-induced obese mouse expressing CPT-1 H327E mutant assessed as reduction in body weight at 400 mg/kg, IG administered for 12 week; type: functional; settings: time 12 weeks
[6] = tested on: Mus musculus; assay: Anti-obesity activity against diet-induced obese mouse expressing CPT-1 H327E mutant assessed as reduction in body fat percentage at 400 mg/kg, IG administered for 12 week relative to control; type: functional; parameters: scale not given: the % may be the effect or the level left; settings: time 12 weeks
[7] = target: T1, Carnitine O-palmitoyltransferase 1, liver isoform (Homo sapiens); assay: Activation of CPT-1 in human HeLa cells assessed as reduction in free fatty acid at 100 uM incubated for 10 mins relative to control; type: cell-based; parameters: scale not given: the % may be the effect or the level left; settings: filed as activator
[8] = target: Angiotensin-converting enzyme 2 (Homo sapiens, UniProt Q9BYF1); assay: Activation of recombinant human ACE2 using McaAPK(Dnp)-OH as substrate preincubated for 15 mins followed by substrate addition spectra max Gemini M5 fluorescence plate reader analysis
[9] = Activation of procaspase-3 (unknown origin); parameters: species or system Homo sapiens
[10] = target: Insulin-degrading enzyme (Homo sapiens) (UniProt P14735); assay: Activation of IDE (unknown origin) using FRET1 as substrate at 6.25 uM by SpectraMax M5 multilabel plate reader analysis relative to control; settings: filed as activator
[11] = target: Indoleamine 2,3-dioxygenase 1 (Homo sapiens, UniProt P14902); assay: Positive allosteric modulation of recombinant human IDOL transfected in mouse P1.HTR cells assessed as increase in Kyn production incubated for 24 hrs; type: cell-based
[12] = target: Indoleamine 2,3-dioxygenase 1 (Mus musculus, UniProt P28776); assay: Positive allosteric modulation of recombinant mouse IDOL transfected in mouse P1.HTR cells assessed as increase in Kyn production incubated for 24 hrs; type: cell-based
[13] = tested on: MDA-MB-231; assay: Cytotoxicity against human MDA-MB-231 cells assessed as inhibition of cell growth incubated for 24 hrs by MTS assay; type: functional, cell-based; settings: MDA-MB-231, 24 h
[14] = tested on: BT-474; assay: Cytotoxicity against human BT-474 cells assessed as inhibition of cell growth incubated for 24 hrs by MTS assay; type: functional, cell-based; settings: BT-474, 24 h
[15] = target: T2, Glucose-6-phosphate 1-dehydrogenase (Homo sapiens, UniProt P11413); assay: Activation of G6PD dimerization in lymphocytes isolated from G6PD-deficient patient carrying canton variant expressed in Escherichia coli C43(DE3) cells using G6P as substrate assessed as increase in lysate activity in presence of NADP+ by resazurin dye based fluorescence assay relative to control; type: subcellular; settings: Lymphocyte, filed as activator
[16] = target: T2, Glucose-6-phosphate 1-dehydrogenase; assay: Activation of G6PD (unknown origin) expressed in Escherichia coli C43(DE3) cells using G6P as substrate in presence of NADP+ by resazurin dye-based assay
[17] = Activation of recombinant human procaspase-3 using Ac-DEVD-pNA as substrate preincubated for 12 hrs followed by substrate addition by absorbance based assay
[18] = target: N-glycosylase/DNA lyase (Homo sapiens, UniProt O15527); assay: Activation of OGG1 (unknown origin) by fluorescence-based assay
[19] = target: Insulin-degrading enzyme (Homo sapiens) (UniProt P14735); assay: Activation of IDE (unknown origin) using FRET1 as substrate at 200 uM by SpectraMax M5 multilabel plate reader analysis relative to control; settings: filed as activator
[20] = target: Insulin-degrading enzyme (Homo sapiens) (UniProt P14735); assay: Activation of IDE (unknown origin) using SP1 as substrate in presence of ATP by SpectraMax M5 multilabel plate reader analysis relative to control; settings: filed as activator
[21] = tested on: NCI-H1975; assay: Antitumor activity against human NCI-H1975 cells xenografted in mouse model assessed as fold decrease in tumor growth; type: functional
[22] = tested on: HCC827; assay: Cytotoxicity against TKI-sensitive LUAD immortalized human HCC827 cells assessed as inhibition of cell growth incubated for 48 hrs by Beckman Coulter cell counter analysis; type: functional, cell-based; settings: HCC827, 48 h
[23] = tested on: NCI-H3255; assay: Cytotoxicity against TKI-sensitive LUAD immortalized human NCI-H3255 cells assessed as inhibition of cell growth incubated for 48 hrs by Beckman Coulter cell counter analysis; type: functional, cell-based; settings: NCI-H3255, 48 h
[24] = tested on: NCI-H1975; assay: Cytotoxicity against d TKI-resistant LUAD human NCI-H1975 cells assessed as inhibition of cell growth incubated for 48 hrs by Beckman Coulter cell counter analysis; type: functional, cell-based; settings: NCI-H1975, 48 h
[25] = tested on: NCI-H1650; assay: Cytotoxicity against d TKI-resistant LUAD human NCI-H1650 cells assessed as inhibition of cell growth incubated for 48 hrs by Beckman Coulter cell counter analysis; type: functional, cell-based; settings: NCI-H1650, 48 h
[26] = tested on: MDA-MB-231; assay: cells; settings: Homo sapiens, MDA-MB-231, 72 h
Description: Antiproliferative activity against human MDA-MB-231 cells assessed as inhibition of cell growth incubated for 72 hrs by Hoechst stain-based assay

[27] = tested on: SUM-159-PT; assay: cells; settings: Homo sapiens, 72 h
Description: Antiproliferative activity against human SUM159 cells assessed as inhibition of cell growth incubated for 72 hrs by Hoechst stain-based assay

[28] = tested on: A549; assay: Anti-oxidative activity in human A549 cells assessed as reduction in cell injury relative to control; type: functional; parameters: scale not given: the % may be the effect or the level left
[29] = Protection against rotenone-induced stress in human Induced pluripotent stem cell-derived neuron cells relative to control; type: functional

N-glycosylase/DNA lyase, sequence (O15527 whole entry): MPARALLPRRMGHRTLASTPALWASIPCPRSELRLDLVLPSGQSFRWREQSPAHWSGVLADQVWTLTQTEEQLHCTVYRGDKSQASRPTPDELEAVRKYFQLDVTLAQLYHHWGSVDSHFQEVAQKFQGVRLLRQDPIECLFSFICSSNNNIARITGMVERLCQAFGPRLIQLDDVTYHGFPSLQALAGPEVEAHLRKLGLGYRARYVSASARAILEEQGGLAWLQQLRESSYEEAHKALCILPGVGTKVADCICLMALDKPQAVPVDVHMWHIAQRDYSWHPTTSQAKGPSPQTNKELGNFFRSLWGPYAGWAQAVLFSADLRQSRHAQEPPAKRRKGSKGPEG
Insulin-degrading enzyme (Homo sapiens), sequence (P14735 whole entry): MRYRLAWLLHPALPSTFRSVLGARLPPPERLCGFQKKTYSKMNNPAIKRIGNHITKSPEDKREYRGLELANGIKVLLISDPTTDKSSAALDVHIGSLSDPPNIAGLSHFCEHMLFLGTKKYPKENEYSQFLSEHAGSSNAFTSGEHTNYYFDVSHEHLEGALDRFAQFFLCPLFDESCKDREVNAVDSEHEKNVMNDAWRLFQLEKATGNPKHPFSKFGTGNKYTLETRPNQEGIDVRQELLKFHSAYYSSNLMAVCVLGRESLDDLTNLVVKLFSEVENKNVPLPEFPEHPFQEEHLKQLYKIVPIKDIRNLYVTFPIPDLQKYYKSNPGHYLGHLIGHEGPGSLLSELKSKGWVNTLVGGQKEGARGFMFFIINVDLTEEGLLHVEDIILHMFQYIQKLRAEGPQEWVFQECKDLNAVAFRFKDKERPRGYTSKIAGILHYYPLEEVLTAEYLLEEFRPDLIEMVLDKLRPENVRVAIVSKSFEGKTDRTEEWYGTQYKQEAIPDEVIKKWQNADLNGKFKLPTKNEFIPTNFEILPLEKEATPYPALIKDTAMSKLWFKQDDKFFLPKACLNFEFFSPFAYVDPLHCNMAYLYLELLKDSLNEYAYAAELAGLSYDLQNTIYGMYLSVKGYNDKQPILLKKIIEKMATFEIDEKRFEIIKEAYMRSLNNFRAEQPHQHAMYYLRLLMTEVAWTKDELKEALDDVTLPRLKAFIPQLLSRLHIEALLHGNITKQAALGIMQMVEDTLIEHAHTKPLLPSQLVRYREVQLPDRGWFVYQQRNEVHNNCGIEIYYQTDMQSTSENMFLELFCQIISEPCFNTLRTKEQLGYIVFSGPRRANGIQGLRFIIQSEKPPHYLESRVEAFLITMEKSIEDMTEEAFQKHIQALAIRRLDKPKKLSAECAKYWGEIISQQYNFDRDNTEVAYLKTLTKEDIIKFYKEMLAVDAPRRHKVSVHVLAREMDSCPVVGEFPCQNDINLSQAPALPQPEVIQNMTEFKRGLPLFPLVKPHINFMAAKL
Angiotensin-converting enzyme 2, sequence (Q9BYF1 whole entry): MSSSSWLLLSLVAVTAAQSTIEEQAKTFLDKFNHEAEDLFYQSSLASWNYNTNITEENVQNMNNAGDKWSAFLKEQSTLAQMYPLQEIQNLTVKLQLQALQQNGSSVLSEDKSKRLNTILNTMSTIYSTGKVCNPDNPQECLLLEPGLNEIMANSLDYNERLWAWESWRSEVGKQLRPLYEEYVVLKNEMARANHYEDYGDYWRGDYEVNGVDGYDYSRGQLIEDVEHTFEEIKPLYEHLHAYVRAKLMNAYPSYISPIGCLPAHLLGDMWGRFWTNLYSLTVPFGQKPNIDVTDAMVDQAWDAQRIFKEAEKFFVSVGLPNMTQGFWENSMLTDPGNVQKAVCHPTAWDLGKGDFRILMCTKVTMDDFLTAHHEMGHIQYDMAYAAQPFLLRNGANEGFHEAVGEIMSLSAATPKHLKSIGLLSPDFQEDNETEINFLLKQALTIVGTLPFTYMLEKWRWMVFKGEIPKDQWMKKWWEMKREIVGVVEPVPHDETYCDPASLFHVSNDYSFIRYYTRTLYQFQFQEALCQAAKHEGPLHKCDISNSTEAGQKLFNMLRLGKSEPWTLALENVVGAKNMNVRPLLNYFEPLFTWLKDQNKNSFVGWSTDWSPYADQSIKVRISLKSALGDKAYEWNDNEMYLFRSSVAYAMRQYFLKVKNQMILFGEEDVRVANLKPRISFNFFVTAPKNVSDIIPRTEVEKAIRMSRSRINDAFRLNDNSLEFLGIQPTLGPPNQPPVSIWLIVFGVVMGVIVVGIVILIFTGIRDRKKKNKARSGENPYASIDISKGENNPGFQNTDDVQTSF
T2 sequence (P11413 whole entry): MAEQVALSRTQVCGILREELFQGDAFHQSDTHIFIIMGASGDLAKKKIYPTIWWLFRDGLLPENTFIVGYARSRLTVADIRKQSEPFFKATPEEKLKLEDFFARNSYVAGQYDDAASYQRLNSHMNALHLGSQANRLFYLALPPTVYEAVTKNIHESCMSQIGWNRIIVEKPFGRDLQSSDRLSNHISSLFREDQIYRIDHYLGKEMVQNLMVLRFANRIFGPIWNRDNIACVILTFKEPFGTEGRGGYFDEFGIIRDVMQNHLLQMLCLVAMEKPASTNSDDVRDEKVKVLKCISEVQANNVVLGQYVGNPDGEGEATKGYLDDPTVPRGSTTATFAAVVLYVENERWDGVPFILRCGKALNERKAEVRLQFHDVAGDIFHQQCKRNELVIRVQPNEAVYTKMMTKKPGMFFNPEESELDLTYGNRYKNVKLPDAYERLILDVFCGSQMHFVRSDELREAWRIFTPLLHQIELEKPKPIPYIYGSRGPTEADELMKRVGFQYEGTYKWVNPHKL
Indoleamine 2,3-dioxygenase 1 (Homo sapiens, UniProt P14902), sequence (P14902 whole entry): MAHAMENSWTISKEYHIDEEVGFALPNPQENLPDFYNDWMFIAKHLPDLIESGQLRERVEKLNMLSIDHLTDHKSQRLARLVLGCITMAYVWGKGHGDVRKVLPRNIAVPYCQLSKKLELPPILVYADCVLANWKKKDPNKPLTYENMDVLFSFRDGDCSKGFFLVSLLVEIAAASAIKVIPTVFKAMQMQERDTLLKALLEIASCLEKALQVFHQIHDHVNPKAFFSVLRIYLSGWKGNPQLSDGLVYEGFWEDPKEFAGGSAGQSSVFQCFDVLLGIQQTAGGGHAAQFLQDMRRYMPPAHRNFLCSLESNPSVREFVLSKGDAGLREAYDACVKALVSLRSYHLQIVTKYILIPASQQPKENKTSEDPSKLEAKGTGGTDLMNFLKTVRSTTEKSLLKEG
3',5'-cyclic-AMP phosphodiesterase 4D, sequence (Q08499 whole entry): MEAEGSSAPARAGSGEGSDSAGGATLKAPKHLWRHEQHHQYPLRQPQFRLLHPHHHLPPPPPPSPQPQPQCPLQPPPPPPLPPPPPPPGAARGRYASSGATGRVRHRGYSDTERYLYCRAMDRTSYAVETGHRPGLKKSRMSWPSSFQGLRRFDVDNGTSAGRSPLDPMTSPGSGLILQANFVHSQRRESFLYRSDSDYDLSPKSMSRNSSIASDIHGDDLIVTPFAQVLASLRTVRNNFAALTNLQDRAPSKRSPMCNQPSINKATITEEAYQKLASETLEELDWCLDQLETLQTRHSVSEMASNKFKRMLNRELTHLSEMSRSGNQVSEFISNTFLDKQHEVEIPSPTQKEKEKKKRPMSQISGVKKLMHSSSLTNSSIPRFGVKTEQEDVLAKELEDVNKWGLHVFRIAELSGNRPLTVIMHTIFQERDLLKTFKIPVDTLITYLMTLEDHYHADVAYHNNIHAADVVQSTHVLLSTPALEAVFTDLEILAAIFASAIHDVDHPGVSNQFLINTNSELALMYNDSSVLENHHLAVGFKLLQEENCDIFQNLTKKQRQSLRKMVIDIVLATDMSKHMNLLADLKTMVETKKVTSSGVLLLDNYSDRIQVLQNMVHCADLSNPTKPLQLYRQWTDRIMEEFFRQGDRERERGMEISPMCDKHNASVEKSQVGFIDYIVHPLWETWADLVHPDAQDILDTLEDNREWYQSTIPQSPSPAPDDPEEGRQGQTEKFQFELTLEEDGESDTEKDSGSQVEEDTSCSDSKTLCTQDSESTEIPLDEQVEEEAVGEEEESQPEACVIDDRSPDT
Indoleamine 2,3-dioxygenase 1 (Mus musculus, UniProt P28776), sequence (P28776 whole entry): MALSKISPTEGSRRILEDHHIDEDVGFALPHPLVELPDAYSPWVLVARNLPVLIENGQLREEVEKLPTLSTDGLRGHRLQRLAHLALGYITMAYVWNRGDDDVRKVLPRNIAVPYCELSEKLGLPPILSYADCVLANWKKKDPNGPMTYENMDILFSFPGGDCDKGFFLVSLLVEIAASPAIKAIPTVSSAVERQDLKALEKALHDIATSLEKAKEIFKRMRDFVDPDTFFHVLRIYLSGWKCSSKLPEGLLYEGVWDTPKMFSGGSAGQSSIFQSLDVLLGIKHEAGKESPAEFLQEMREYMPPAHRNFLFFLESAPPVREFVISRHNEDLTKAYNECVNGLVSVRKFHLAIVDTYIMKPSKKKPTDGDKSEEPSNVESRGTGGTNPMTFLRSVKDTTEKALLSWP

SMILES: O=C(Nc1ccc(S(=O)(=O)N2CCOCC2)cc1)c1cc(Cl)ccc1NS(=O)(=O)c1ccc(Cl)s1
- EC50 [1]: 500 nM

SMILES: CCc1nc(-c2ccc(Cl)c(F)c2)nn1CC(=O)NCc1cc(Cl)cc(Cl)c1
- EC50 [2]: 1200 nM

SMILES: COC(=O)N(C)c1c(N)nc(-c2nn(Cc3ccccc3F)c3ncccc23)nc1N
- fold change (FC) [3]: < 73

SMILES: O=C(O)[C@H]1O[C@@H](Oc2cc3oc(-c4ccccc4)cc(=O)c3c(O)c2O)[C@H](O)[C@@H](O)[C@@H]1O [BAICALIN]
- fold change (FC) [4]: 7
- Activity [5]: -12.5 g
- Activity [6]: -0.085%
- Activity [7]: 50%

SMILES: O=C1OC2(c3ccc(O)cc3Oc3cc(O)ccc32)c2ccccc21 [FLUORESCEIN]
- EC50 [8]: 19.5 µM

SMILES: O=C(Nc1cccc(-c2cn3ccccc3n2)c1)c1cc2cccc(O)c2oc1=O
- EC50 [9]: 1300 nM

SMILES: O=C(Nc1cccc(Cl)c1)N1CCC(c2cc(-c3ccco3)[nH]n2)CC1
- Activity [10]: 60%

SMILES: CC(=O)NCCc1c[nH]c2ccc(O)cc12 [ACETYLSEROTONIN]
- EC50 [11]: 20.9 µM
- EC50 [12]: 19.6 µM

SMILES: CCCCCCCCc1ccc(CCC(N)(CO)CO)cc1 [FINGOLIMOD]
- IC50 [13]: 2900 nM
- IC50 [14]: 8.5 µM

SMILES: N=C(N)c1ccc(/N=N/Nc2ccc(C(=N)N)cc2)cc1 [DIMINAZENE]
- EC50 [8]: 8.04 µM

SMILES: c1ccc2c(CCNCCSSCCNCCc3c[nH]c4ccccc34)c[nH]c2c1
- Activity [15]: 78%
- EC50 [16]: 800 nM

SMILES: O=C(CN1CCN(Cc2nc(-c3ccc(COc4ccc(F)cc4)cc3)no2)CC1)N/N=C/c1ccc(OCc2csc(Cc3ccc4c(c3)OCO4)n2)cc1O
- EC50 [17]: 950 nM

SMILES: Cc1cnc(N2CCN3CCCC3C2)nc1Oc1ccc(-n2ccnc2)cc1 (stereo unspecified)
- EC50 [18]: 4.6 µM

SMILES: Fc1ccccc1Cc1nc(-c2nc(C(F)(F)F)n[nH]2)cn2ccnc12 [ZAGOCIGUAT]
- EC50 [1]: 66 nM

SMILES: O=C1CC(c2ccc(Cl)cc2)CC(=O)C1/C=N/OCc1nnsc1Cl (stereo unspecified)
- Activity [19]: 500%
- Activity [20]: 1000%

SMILES: c1ccc2c(NC3CCCCC3)nc(C3CC3)nc2c1
- EC50 [18]: 0.78 µM

SMILES: O=S(=O)(N[C@@H]1CCCC(N2c3ccccc3Oc3ccccc32)[C@H]1O)c1ccc(OC(F)(F)F)cc1 (stereo partly specified)
- fold change (FC) [21]: 2
- IC50 [22]: 14.3 µM
- IC50 [23]: 12.4 µM
- IC50 [24]: 10.6 µM
- IC50 [25]: 10.6 µM

SMILES: N#Cc1cccc(CN2CCc3ncn(Cc4ccc(Cl)cc4)c(=O)c3C2)c1
- IC50 [26]: 3 nM
- IC50 [27]: 12 nM

SMILES: CNc1nnc(C)c2c1cc(-c1ccc(F)cc1)n2C
- EC50 [18]: 5.1 µM
- Activity [28]: 200%

SMILES: Cc1cc(N[C@@H](C)C(=O)Nc2ccccc2)nc(Nc2ccccc2)n1
- EC50 [18]: 4.1 µM

SMILES: OC(Cn1ccnc1)(c1ccc(Cl)cc1Cl)C1CCCCC1 (stereo unspecified)
- EC50 [18]: 5 µM
- Activity [28]: 650%

SMILES: O=C(c1cc(O)c(O)c(O)c1)c1ccc(O)c(O)c1O [EXIFONE]
- Activity [29]: 80%
